Results as given in BindingDB's records for doi:10.1016/j.bmcl.2017.10.053 (Vanderbilt University School of Medicine, 2017).

Target: T1, Muscarinic acetylcholine receptor M4 (Homo sapiens, UniProt P08173)
T1 sequence (P08173 whole entry): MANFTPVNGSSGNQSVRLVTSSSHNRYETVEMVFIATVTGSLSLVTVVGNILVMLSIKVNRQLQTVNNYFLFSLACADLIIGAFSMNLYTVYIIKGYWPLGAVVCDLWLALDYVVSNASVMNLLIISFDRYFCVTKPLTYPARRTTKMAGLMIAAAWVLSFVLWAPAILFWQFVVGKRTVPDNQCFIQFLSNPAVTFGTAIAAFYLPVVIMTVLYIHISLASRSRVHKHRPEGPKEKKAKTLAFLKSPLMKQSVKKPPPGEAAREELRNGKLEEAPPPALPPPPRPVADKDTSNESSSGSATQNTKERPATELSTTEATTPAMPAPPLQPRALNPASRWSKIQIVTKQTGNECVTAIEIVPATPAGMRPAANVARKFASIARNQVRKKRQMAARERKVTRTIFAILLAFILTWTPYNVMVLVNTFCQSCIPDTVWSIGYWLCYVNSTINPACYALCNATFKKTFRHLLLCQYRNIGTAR
Assay: Positive allosteric modulation of human M4 receptor expressed in CHO cells co-expressing Gqi5 assessed as increase in acetylcholine-induced calcium mobilization

## Cc1nnc2sc(C(=O)N3CC4(CCN(c5cccnc5)C4)C3)c(N)c2c1C
  EC50: 0.324 µM
